Laboratory results taken from patent publication US10703755B2, “Substituted purine derivative” (SUMITOMO DAINIPPON PHARMA CO., LTD., priority 2016, dated 2020).

Target: human TLR7 (Homo sapiens (Human), UniProt Q9NYK1)
Assay: Test for evaluating the inhibition of the activation of human TLR7 (SEAP reporter, TLR7/NF-κB/SEAPorter HEK293 cell)
Type: cell-based
Conditions: R-848 200 nmol/L; for inhibitory effect against TLR7 in the test for evaluating inhibition of the activation of TLR7: SEAP activity, result in words; for IC50: SEAP reporter
Summary of the method: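 The readout is secreted alkaline phosphatase under NF-κB response-element control in TLR7/NF-κB/SEAPorter HEK293 cells, which stably express full-length human TLR7. Cells were plated at 5×10^4 per well and grown overnight at 37° C, 5% CO2, in DMEM/10% FBS/blasticidin.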

human TLR7, sequence (Q9NYK1 27-1049): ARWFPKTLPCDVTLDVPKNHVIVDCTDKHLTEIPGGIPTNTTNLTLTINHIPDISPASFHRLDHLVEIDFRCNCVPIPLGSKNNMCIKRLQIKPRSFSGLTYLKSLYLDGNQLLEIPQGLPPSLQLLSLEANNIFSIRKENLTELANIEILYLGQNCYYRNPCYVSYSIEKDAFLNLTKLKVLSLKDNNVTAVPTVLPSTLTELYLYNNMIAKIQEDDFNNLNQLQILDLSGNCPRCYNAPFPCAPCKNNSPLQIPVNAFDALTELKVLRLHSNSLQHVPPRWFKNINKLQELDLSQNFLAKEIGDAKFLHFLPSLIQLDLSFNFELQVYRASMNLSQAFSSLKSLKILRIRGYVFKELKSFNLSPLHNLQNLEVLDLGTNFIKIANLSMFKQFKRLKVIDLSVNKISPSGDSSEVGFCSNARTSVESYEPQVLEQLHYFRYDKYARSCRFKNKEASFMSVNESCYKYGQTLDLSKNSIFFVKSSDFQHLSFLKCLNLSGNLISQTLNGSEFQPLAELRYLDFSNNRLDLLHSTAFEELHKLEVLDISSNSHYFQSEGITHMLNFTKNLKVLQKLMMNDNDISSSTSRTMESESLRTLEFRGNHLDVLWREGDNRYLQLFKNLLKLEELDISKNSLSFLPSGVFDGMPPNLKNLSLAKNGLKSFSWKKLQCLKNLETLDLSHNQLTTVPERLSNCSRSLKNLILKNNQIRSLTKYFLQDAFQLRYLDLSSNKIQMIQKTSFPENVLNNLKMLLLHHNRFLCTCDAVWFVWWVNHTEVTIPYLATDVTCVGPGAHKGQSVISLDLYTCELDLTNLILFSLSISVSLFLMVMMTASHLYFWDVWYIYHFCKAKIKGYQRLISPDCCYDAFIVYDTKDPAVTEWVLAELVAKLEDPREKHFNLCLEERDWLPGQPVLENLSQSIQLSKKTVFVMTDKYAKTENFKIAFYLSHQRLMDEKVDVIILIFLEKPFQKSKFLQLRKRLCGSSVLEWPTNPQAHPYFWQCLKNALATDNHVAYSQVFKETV

Row | SMILES | inhibitory effect against TLR7 in the test for evaluating inhibition of the activation of TLR7 | IC50 [nM]
1 | COc1nc(C)c2nc(-c3cncc(F)c3)n(Cc3ccc(C4CCN(C)C4)cc3F)c2n1 (centres unmarked) [Example 290, 9-[2-fluoro-4-(1-methylpyrrolidin-3-yl)benzyl]-8-(5-fluoropyridin-3-yl)-2-methoxy-6-methyl-9H-purine] | potent inhibitory effect against TLR7 | 22
2 | CCCCOc1nc(N)c2nc(-c3cncc(F)c3)n(Cc3cccc(C(=O)N4CCN(C)CC4)c3)c2n1 [Example 147] | – | 3500
3 | CCOc1nc(C)c2nc(-c3cncc(F)c3)n(Cc3ccc(Br)cc3OC)c2n1 [Example 325] | – | 1520
4 | CCOc1nc(N)c2nc(-c3cncc(F)c3)n(Cc3cccc(OCCN4CCCC4)c3)c2n1 [Example 51] | potent inhibitory effect against TLR7 | 59
5 | CCCCOc1nc(N)c2nc(-c3ccoc3)n(Cc3ccccc3)c2n1 [Example 7] | – | 7800
6 | COc1nc(C)c2nc(-c3cccc(C#N)c3)n(Cc3ccc(C4CN5CCC4CC5)cc3F)c2n1 (centres unmarked) [Example 344, 3-{9-[4-(1-azabicyclo[2.2.2]oct-3-yl)-2-fluorobenzyl]-2-methoxy-6-methyl-9H-purin-8-yl}benzonitrile] | potent inhibitory effect against TLR7 | 12
7 | CN(C)Cc1ccc(Cn2c(-c3cncc(F)c3)nc3c(N)nc(OC4CCOCC4)nc32)cc1 [Example 151] | – | 16600
8 | CN(C)Cc1ccc(Cn2c(-c3cncc(F)c3)nc3c(N)nc(N4CCC4)nc32)cc1 [Example 153] | – | 5800
9 | CN(C)Cc1ccc(Cn2c(-c3cncc(F)c3)nc3c(N)nc(OCC4CCOCC4)nc32)cc1 [Example 152] | – | 2900
10 | COc1nc(C)c2nc(-c3cncc(F)c3)n(Cc3ccc(OC4CN(C)C4)cc3F)c2n1 [Example 416, 9-{2-fluoro-4-[(1-methylazetidin-3-yl)oxy]benzyl}-8-(5-fluoropyridin-3-yl)-2-methoxy-6-methyl-9H-purine] | potent inhibitory effect against TLR7 | 50
11 | CCOc1nc(C)c2nc(-c3cncc(F)c3)n(Cc3ccc(C4CN5CCC4CC5)nc3OC)c2n1 (centres unmarked) [Example 327] | potent inhibitory effect against TLR7 | 23
12 | CCOc1nc(N)c2nc(-c3cncc(F)c3)n(Cc3ccc(CN4[C@@H]5CC[C@H]4CN(C)C5)cc3)c2n1 [Example 95] | potent inhibitory effect against TLR7 | 50
13 | CCCCOc1nc(C)c2nc(-c3cncc(F)c3)n(Cc3ccccc3)c2n1 [Example 141, 9-Benzyl-2-butoxy-8-(5-fluoropyridin-3-yl)-6-methyl-9H-purine] | – | 3300
14 | CCOc1nc(C)c2nc(-c3cncc(F)c3)n(Cc3cnn(CC4CCCN(C)C4)c3)c2n1 (centres unmarked) [Example 277] | potent inhibitory effect against TLR7 | 23
15 | CCOc1nc(C)c2nc(-c3cncc(F)c3)n(Cc3ccc(C4=CN5CCC4CC5)cc3OCC)c2n1 [Example 356] | – | 463
16 | CCOc1nc(C)c2nc(-c3cncc(F)c3)n(Cc3ccc(CN4C[C@@H]5C[C@H]4CN5C)cc3F)c2n1 [Example 313, 2-ethoxy-9-(2-fluoro-4-{[(1S,4S)-5-methyl-2,5-diazabicyclo[2.2.1]hept-2-yl]methyl}benzyl)-8-(5-fluoropyridin-3-yl)-6-methyl-9H-purine] | potent inhibitory effect against TLR7 | 8
17 | COCCOc1nc(N)c2nc(-c3cncc(F)c3)n(Cc3ccc(CN4CCCCC4)cc3)c2n1 [Example 91] | – | 250
18 | CCOc1nc(N)c2nc(-c3cncc(F)c3)n(Cc3ccc(CO)cc3)c2n1 [Example 77, (4-{[6-Amino-2-ethoxy-8-(5-fluoropyridin-3-yl)-9H-purin-9-yl]methyl}phenyl)methanol] | – | 2400
19 | COc1nc(C)c2nc(-c3cncc(F)c3)n(Cc3cnn(C)c3)c2n1 [Example 243] | – | 2660
20 | CCOc1nc(C)c2nc(-c3cncc(F)c3)n(Cc3ccc(C4=CN5CCC4CC5)cc3C#N)c2n1 [Example 363] | – | 592
21 | CCOc1nc(C)c2nc(-c3cncc(F)c3)n(Cc3cnn(CC4CCNCC4)c3)c2n1 [Example 428] | – | 210
22 | CCN1CCC(c2ccc(Cn3c(-c4cncc(F)c4)nc4c(C)nc(OC)nc43)c(F)c2)CC1 [Example 284, 9-[4-(1-ethylpiperidin-4-yl)-2-fluorobenzyl]-8-(5-fluoropyridin-3-yl)-2-methoxy-6-methyl-9H-purine] | potent inhibitory effect against TLR7 | 3
23 | CCOc1nc(N)c2nc(-c3cncc(F)c3)n(Cc3ccc(CN4CCN(C)C(=O)C4)cc3)c2n1 [Example 93] | – | 290
24 | CCOc1nc(C)c2nc(-c3cncc(F)c3)n(Cc3cc(OC)c(C4CN5CCC4CC5)cc3F)c2n1 (centres unmarked) [Example 317] | – | 1610
25 | COc1ccc(Cn2c(-c3cncc(F)c3)nc3c(C)nc(OC)nc32)c(F)c1 [Example 405, 9-(2-fluoro-4-methoxybenzyl)-8-(5-fluoropyridin-3-yl)-2-methoxy-6-methyl-9H-purine] | – | 3410

Row | SMILES | inhibitory effect against TLR7 in the test for evaluating inhibition of the activation of TLR7 | IC50 [nM]
26 | CCOc1nc(N)c2nc(-c3cncc(F)c3)n(Cc3ccc(CN4CCCCC4)cc3)c2n1 [Example 98] | potent inhibitory effect against TLR7 | 71
27 | COc1nc(C)c2nc(-c3cncc(F)c3)n(Cc3ccc(CO)cc3F)c2n1 [Example 258] | – | 169
28 | COc1nc(C)c2nc(-c3cncc(F)c3)n(Cc3ccc(Br)c(F)c3)c2n1 [Example 332] | – | 6480
29 | CCOc1nc(N)c2nc(-c3cncc(C)c3)n(Cc3ccc(CN(C)C)cc3)c2n1 [Example 33] | – | 820
30 | CCCCOc1nc(N)c2nc(-c3ccccn3)n(Cc3ccccc3)c2n1 [Example 35] | – | 18100
31 | CCOc1nc(C)c2nc(-c3cncc(F)c3)n(Cc3ccc(CN4CCN5CC[C@@H]4C5)cc3)c2n1 [Example 174, 9-{4-[(5R)-1,4-diazabicyclo[3.2.1]oct-4-ylmethyl]benzyl}-2-ethoxy-8-(5-fluoropyridin-3-yl)-6-methyl-9H-purine] | potent inhibitory effect against TLR7 | 26
32 | CCCOc1nc(N)c2nc(-c3cncc(F)c3)n(Cc3ccc(CN(C)C)cc3)c2n1 [Example 162] | – | 210
33 | CCCCOc1nc(N)c2nc(-c3ccncc3)n(Cc3ccccc3)c2n1 [Example 4] | – | 7800
34 | COc1nc(C)c2nc(-c3cncc(F)c3)n(Cc3ccc(OCCN(C)C)cc3F)c2n1 [Example 420] | – | 139
35 | COc1nc(C)c2nc(-c3cncnc3)n(Cc3ccc([C@@H]4CN5CCC4CC5)cc3F)c2n1 [Example 444, 9-{4-[(3R)-1-Azabicyclo[2.2.2]oct-3-yl]-2-fluorobenzyl}-2-methoxy-6-methyl-8-(pyrimidin-5-yl)-9H-purine] | – | 98
36 | CCOc1nc(C)c2nc(-c3cncc(F)c3)n(Cc3cnn(CC4CCCN(C)C4)c3)c2n1 (centres unmarked) [Example 276] | potent inhibitory effect against TLR7 | 24
37 | CCOc1nc(N)c2nc(-c3cncc(F)c3)n(Cc3ccc(CN4C[C@@H]5C[C@H]4CO5)cc3)c2n1 [Example 96] | potent inhibitory effect against TLR7 | 80
38 | COc1nc(C)c2nc(-c3ccc4ncccc4c3)n(Cc3ccc(OC4CN5CCC4CC5)cc3F)c2n1 (centres unmarked) [Example 440] | – | 84
39 | CCOc1nc(N)c2nc(-c3cncc(F)c3)n(Cc3ccc(C4CN5CCC4CC5)cc3)c2n1 (centres unmarked) [Example 46] | potent inhibitory effect against TLR7 | 25
40 | COCCOc1nc(N)c2nc(-c3cncc(OC)c3)n(Cc3ccccc3)c2n1 [Example 24] | – | 13700
41 | CCCCOc1nc(N)c2nc(-c3cccnc3)n(Cc3cccnc3)c2n1 [Example 3] | – | 9200
42 | Cc1nc(O)nc2c1nc(-c1cncc(F)c1)n2Cc1ccc(C2CN3CCC2CC3)cc1 (centres unmarked) [Example 388, 9-[4-(1-Azabicyclo[2.2.2]oct-3-yl)benzyl]-8-(5-fluoropyridin-3-yl)-6-methyl-9H-purin-2-ol] | – | 1350
43 | CCOc1nc(C)c2nc(-c3cncc(F)c3)n(Cc3cnn(CC4CN(C)CCO4)c3)c2n1 (centres unmarked) [Example 272] | – | 261
44 | CCOc1nc(C)c2nc(-c3cncc(C#N)c3)n(Cc3ccc(CN4C[C@@H]5C[C@H]4CN5C)cc3F)c2n1 [Example 311, 5-[2-ethoxy-9-(2-fluoro-4-{[(1S,4S)-5-methyl-2,5-diazabicyclo[2.2.1]hept-2-yl]methyl}benzyl)-6-methyl-9H-purin-8-yl]pyridine-3-carbonitrile] | potent inhibitory effect against TLR7 | 11
45 | CCOc1nc(C)c2nc(-c3cncc(F)c3)n(Cc3ccc(Br)cc3C#N)c2n1 [Example 339] | – | 160
46 | CCOc1nc(N)c2nc(-c3cncc(F)c3)n(Cc3ccc(N4CCN(C)CC4)nc3)c2n1 [Example 65] | – | 550
47 | Cc1nc(O)nc2c1nc(-c1cncc(F)c1)n2Cc1ccc(C2CN3CCC2CC3)cc1F (centres unmarked) [Example 389] | – | 2040
48 | CCOc1nc(N)c2nc(-c3cncc(F)c3)n(Cc3ccc(OCCN4CCCC4)cc3)c2n1 [Example 47, 2-Ethoxy-8-(5-fluoropyridin-3-yl)-9-{4-[2-(pyrrolidin-1-yl)ethoxy]benzyl}-9H-purine-6-amine] | potent inhibitory effect against TLR7 | 30
49 | CCCCOc1nc(N)c2nc(-c3cccnc3)n(Cc3ccccc3)c2n1 [Example 2] | – | 5500
